Data from patent US10077261B2, “Imidazolin-5-one derivative useful as FASN inhibitors for the treatment of cancer” (Janssen Pharmaceutica NV, priority 2012, dated 2018).

Biological target: T1, hFASN enzyme (full length) (Homo sapiens, UniProt P49327)
T1 construct: 10 μL hFASN enzyme (full length, 300 ng, purified in house); made in house
Assay: Fatty Acid Synthase (FASN) inhibition scintillation proximity assay
Format: biochemical
Settings: for inhibition at 10 µM: read-out: Human FASN % inhibition @ 10 μM, 10 μM test compound; for IC50: read-out: Human FASN pIC50 (converted)
Procedure: In this assay, inhibition of FASN activity is measured using ^3H-acetyl-CoA and malonyl-CoA as substrates. ^3H-Acetyl CoA is converted to ^3H-palmitate through a series of reactions by the FASN protein, which contains 7 functional domains and carries out 7 enzymatic reactions to ultimately produce ^3H-palmitate. The assay principle is based upon the fact that ^3H-acetyl-CoA is hydrophilic and the end product, ^3H-palmitate is hydrophobic.
10 μL assay buffer (100 mM KH2PO4 pH 7.5, 1 mM DTT) (20 μL in blanks) was added to a 384-well white optiplate plate (Perkin Elmer). 0.9 μL test compound (at concentrations of 30 μM, 10 μM, 3 μM, 1 μM, 0.30 μM, 0.10 μM, 0.03 μM and 0.01 μM)/DMSO and 10 μL hFASN enzyme (full length, 300 ng, purified in house) or 10 μL assay buffer was added to the wells. […] The reaction was stopped by adding 20 μL Streptavidin coupled imaging beads (25 mg/ml). After incubation for 30 minutes at room temperature in the dark, the 384 well plate was centrifuged at 1500 rpm for 3 minutes and was measured after at least 24 hrs by the LEADseeker™, measuring emission using a 610±20 nm pass filter.
where mLC and mHC were the means of the low control wells and high control wells on the plate, after manual exclusion of outliers. A plot of Controlmin versus test compound concentration was fitted to a 4-parameter logistic curve using a non-linear least squares regression method.

T1 sequence (P49327 whole entry): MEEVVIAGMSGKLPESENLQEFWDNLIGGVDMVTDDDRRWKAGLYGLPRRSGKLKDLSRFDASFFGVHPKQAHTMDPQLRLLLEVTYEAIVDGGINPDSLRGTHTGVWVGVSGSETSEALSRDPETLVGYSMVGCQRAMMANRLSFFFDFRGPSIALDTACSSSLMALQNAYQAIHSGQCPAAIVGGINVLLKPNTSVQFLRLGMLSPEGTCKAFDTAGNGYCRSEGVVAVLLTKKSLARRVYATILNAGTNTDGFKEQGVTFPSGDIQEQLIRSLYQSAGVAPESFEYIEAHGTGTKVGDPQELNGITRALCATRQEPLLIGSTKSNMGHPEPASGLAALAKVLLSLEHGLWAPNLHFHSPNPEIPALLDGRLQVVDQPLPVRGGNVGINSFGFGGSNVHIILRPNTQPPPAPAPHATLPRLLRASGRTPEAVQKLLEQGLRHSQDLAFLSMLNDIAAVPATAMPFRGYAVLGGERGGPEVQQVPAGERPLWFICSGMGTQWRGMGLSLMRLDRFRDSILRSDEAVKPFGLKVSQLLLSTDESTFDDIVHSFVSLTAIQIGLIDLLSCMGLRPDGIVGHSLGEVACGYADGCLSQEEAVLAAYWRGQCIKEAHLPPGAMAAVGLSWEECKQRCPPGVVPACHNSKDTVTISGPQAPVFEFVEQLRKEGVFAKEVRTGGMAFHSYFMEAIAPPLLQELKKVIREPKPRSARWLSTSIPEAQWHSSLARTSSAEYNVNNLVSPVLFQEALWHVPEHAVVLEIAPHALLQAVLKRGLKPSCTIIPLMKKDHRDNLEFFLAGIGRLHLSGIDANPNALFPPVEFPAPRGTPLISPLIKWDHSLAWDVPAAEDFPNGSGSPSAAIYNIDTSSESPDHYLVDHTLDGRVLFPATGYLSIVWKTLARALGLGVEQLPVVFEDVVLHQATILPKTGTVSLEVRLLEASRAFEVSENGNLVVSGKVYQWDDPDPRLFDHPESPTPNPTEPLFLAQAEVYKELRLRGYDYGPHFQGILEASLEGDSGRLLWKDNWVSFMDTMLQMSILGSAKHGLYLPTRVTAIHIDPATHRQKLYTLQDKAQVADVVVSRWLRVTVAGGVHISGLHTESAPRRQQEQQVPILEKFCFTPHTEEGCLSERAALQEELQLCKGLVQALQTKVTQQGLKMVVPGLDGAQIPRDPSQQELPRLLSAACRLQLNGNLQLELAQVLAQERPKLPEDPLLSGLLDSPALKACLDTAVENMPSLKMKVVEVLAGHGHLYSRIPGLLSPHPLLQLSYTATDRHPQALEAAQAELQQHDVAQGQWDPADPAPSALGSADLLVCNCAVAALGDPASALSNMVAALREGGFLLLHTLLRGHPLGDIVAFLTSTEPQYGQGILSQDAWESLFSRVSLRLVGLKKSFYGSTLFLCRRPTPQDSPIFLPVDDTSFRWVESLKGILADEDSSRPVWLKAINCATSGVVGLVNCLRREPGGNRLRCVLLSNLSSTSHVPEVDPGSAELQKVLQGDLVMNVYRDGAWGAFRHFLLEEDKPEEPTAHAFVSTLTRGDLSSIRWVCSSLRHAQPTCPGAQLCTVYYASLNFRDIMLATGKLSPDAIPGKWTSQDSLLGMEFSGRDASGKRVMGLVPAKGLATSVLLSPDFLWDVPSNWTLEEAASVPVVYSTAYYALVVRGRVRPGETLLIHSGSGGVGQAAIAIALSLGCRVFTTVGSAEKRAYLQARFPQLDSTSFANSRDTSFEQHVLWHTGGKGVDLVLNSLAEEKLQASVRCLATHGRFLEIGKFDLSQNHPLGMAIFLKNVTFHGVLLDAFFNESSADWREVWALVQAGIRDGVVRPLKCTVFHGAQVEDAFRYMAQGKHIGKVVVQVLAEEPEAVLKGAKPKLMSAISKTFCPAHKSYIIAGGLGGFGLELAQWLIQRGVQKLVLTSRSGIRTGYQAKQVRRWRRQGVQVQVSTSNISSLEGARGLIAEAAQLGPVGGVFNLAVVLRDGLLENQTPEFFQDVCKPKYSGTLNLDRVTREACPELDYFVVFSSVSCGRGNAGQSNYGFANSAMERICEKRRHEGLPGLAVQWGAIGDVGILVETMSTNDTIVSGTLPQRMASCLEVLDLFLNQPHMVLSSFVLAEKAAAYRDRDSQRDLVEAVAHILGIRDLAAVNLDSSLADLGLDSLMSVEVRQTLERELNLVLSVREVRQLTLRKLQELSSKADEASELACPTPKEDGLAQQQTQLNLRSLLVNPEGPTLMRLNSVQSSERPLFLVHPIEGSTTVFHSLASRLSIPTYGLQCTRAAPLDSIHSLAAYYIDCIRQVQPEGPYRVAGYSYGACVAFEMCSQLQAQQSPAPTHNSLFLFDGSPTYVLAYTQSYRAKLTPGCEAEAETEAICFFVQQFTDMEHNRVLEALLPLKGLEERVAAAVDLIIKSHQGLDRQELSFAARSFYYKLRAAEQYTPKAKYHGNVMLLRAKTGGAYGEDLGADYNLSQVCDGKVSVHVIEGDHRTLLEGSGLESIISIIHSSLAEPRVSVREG

Row | inhibition at 10 µM | IC50 | Compound
1 | 96.5% | 776 nM | Cc1cc2cc(-c3ccc(C4=NC5(CCNCC5)C(=O)N4C[C@@H]4CCN(C(=O)C5CC5)C4)cc3)ccc2o1 [compound 155]
2 | 108% | 191 nM | COc1cc(-c2ccc3occc3c2)ccc1C1=NC2(CCCC2)C(=O)N1C[C@@H]1CCN(C(=O)C2CC2)C1 [compound 156, 2-[4-(1-Benzofuran-5-yl)-2-methoxyphenyl]-3-{[(3R)-1-(cyclopropylcarbonyl)pyrrolidin-3-yl]methyl}-1,3-diazaspiro[4.4]non-1-en-4-one]
3 | 71.6% | 3390 nM | CC(C)N1CCC2(CC1)N=C(c1ccc(-c3ccc4occc4c3)cc1)N(CC1CN(C(=O)C3CC3)C1)C2=O [compound 166, 2-[4-(1-Benzofuran-5-yl)phenyl]-3-{[1-(cyclopropylcarbonyl)azetidin-3-yl]methyl}-8-(1-methylethyl)-1,3,8-triazaspiro[4.5]dec-1-en-4-one]
4 | 107% | 214 nM | Cc1cc2cc(-c3ccc(C4=NC5(CCN(C(=O)C6CC6)CC5)C(=O)N4C[C@@H]4CCN(C(=O)C5CC5)C4)cc3)ccc2o1 [compound 171, 8-(Cyclopropylcarbonyl)-3-{[(3R)-1-(cyclopropylcarbonyl)pyrrolidin-3-yl]methyl}-2-[4-(2-methyl-1-benzofuran-5-yl)phenyl]-1,3,8-triazaspiro[4.5]dec-1-en-4-one]
5 | 108% | 251 nM | Cc1cc2cc(-c3ccc(C4=NC5(CCN(C(=O)C(C)C)CC5)C(=O)N4C[C@@H]4CCN(C(=O)C5CC5)C4)cc3)ccc2o1 [compound 172, 3-{[(3R)-1-(Cyclopropylcarbonyl)pyrrolidin-3-yl]methyl}-2-[4-(2-methyl-1-benzofuran-5-yl)phenyl]-8-(2-methylpropanoyl)-1,3,8-triazaspiro[4.5]dec-1-en-4-one]
6 | 97% | 380 nM | Cc1cc2cc(-c3ccc(C4=NC5(CCN(CCO)CC5)C(=O)N4C[C@@H]4CCN(C(=O)C5CC5)C4)cc3)ccc2o1 [compound 173, 3-{[(3R)-1-(Cyclopropylcarbonyl)pyrrolidin-3-yl]methyl}-8-(2-hydroxyethyl)-2-[4-(2-methyl-1-benzofuran-5-yl)phenyl]-1,3,8-triazaspiro[4.5]dec-1-en-4-one]
7 | 109% | 245 nM | Cc1cc2cc(-c3ccc(C4=NC5(CCN(C(=O)CN(C)C)CC5)C(=O)N4C[C@@H]4CCN(C(=O)C5CC5)C4)cc3)ccc2o1 [compound 174, 3-{[(3R)-1-(Cyclopropylcarbonyl)pyrrolidin-3-yl]methyl}-8-(N,N-dimethylglycyl)-2-[4-(2-methyl-1-benzofuran-5-yl)phenyl]-1,3,8-triazaspiro[4.5]dec-1-en-4-one]
8 | 108% | 102 nM | Cc1cc2cc(-c3ccc(C4=NC5(CC5)C(=O)N4CC4CN(C(=O)C5CC5)C4)cc3)ccc2o1 [compound 178, 6-{[1-(Cyclopropylcarbonyl)azetidin-3-yl]methyl}-5-[4-(2-methyl-1-benzofuran-5-yl)phenyl]-4,6-diazaspiro[2.4]hept-4-en-7-one]
9 | 59.5% | 6310 nM | Cc1cc2cc(-c3ccc(C4=NC5(CC5)C(=O)N4CC4CN(C(=O)C5CC5)C4)cc3C)ccc2o1 [compound 179, 6-{[1-(Cyclopropylcarbonyl)azetidin-3-yl]methyl}-5-[3-methyl-4-(2-methyl-1-benzofuran-5-yl)phenyl]-4,6-diazaspiro[2.4]hept-4-en-7-one]
10 | 101% | 138 nM | Cc1cc(C2=NC3(CC3)C(=O)N2C[C@@H]2CCN(C(=O)C3CC3)C2)ccc1-c1ccc2occc2c1 [compound 180, 5-[4-(1-Benzofuran-5-yl)-3-methylphenyl]-6-{[(3R)-1-(cyclopropylcarbonyl)pyrrolidin-3-yl]methyl}-4,6-diazaspiro[2.4]hept-4-en-7-one]

Continued, compound first:

Row | Compound | inhibition at 10 µM | IC50
11 | CN(C)CC(=O)N1CCC2(CC1)N=C(c1ccc(-c3ccc4cnccc4c3)cc1)N(CC1CN(C(=O)C3CC3)C1)C2=O [compound 154, 3-{[1-(Cyclopropylcarbonyl)azetidin-3-yl]methyl}-8-(N,N-dimethylglycyl)-2-(4-isoquinolin-6-ylphenyl)-1,3,8-triazaspiro[4.5]dec-1-en-4-one] | 109% | 269 nM
12 | COc1cc(-c2ccc3[nH]ccc3c2)ccc1C1=NC2(CCCC2)C(=O)N1C[C@@H]1CCN(C(=O)C2CC2)C1 [compound 157, 3-{[(3R)-1-(Cyclopropylcarbonyl)pyrrolidin-3-yl]methyl}-2-[4-(1H-indol-5-yl)-2-methoxyphenyl]-1,3-diazaspiro[4.4]non-1-en-4-one] | 112% | 67.6 nM
13 | O=C(C1CC1)N1CCC(CN2C(=O)C3(CC3)N=C2c2ccc(-c3cccc(F)c3)cc2)CC1 [compound 158, 6-{[1-(Cyclopropylcarbonyl)piperidin-4-yl]methyl}-5-(3′-fluorobiphenyl-4-yl)-4,6-diazaspiro[2.4]hept-4-en-7-one] | 33% | > 10000 nM
14 | O=C(C1CC1)N1CC[C@@H](CN2C(=O)C3(CCN(CCO)CC3)N=C2c2ccc(-c3ccc4cnccc4c3)cc2)C1 [compound 159, 3-{[(3R)-1-(Cyclopropylcarbonyl)pyrrolidin-3-yl]methyl}-8-(2-hydroxyethyl)-2-(4-isoquinolin-6-ylphenyl)-1,3,8-triazaspiro[4.5]dec-1-en-4-one] | 116% | 79.4 nM
15 | CC(=O)N1CCC2(CC1)N=C(c1ccc(-c3ccc4c(c3)CCN(C(C)=O)C4)cc1)N(C[C@@H]1CCN(C(=O)C3CC3)C1)C2=O [compound 160] | 29.3% | > 10000 nM
16 | CC(=O)N1CCC2(CC1)N=C(c1ccc(C3=CC4CCN(C(C)=O)CC4C=C3)cc1)N(C[C@@H]1CCN(C(=O)C3CC3)C1)C2=O (stereo partly drawn) [compound 161, 8-Acetyl-2-[4-(2-acetyl-1,2,3,4,4a,8a-hexahydroisoquinolin-6-yl)phenyl]-3-{[(3R)-1-(cyclopropylcarbonyl)pyrrolidin-3-yl]methyl}-1,3,8-triazaspiro[4.5]dec-1-en-4-one] | 16% | > 10000 nM
17 | CC(C)N1CCC2(CC1)N=C(c1ccc(-c3ccc4cnccc4c3)cc1)N(C[C@@H]1CCN(C(=O)C3CC3)C1)C2=O [compound 163] | 110% | 229 nM
18 | CN(C)CC(=O)N1CCC2(CC1)N=C(c1ccc(-c3ccc4[nH]ccc4c3)cc1)N(C[C@@H]1CCN(C(=O)C3CC3)C1)C2=O [compound 164, 3-{[(3R)-1-(Cyclopropylcarbonyl)pyrrolidin-3-yl]methyl}-8-(N,N-dimethylflycyl)-2-[4-(1H-indol-5-yl)phenyl]-1,3,8-triazaspiro[4.5]dec-1-en-4-one] | 115% | 39.8 nM
19 | CN(C)CC(=O)N1CCC2(CC1)N=C(c1ccc(-c3ccc4[nH]ncc4c3)cc1)N(C[C@@H]1CCN(C(=O)C3CC3)C1)C2=O [compound 165, 3-{[(3R)-1-(Cyclopropylcarbonyl)pyrrolidin-3-yl]methyl}-8-(N,N-dimethylglycyl)-2-[4-(1H-indazol-5-yl)phenyl]-1,3,8-triazaspiro[4.5]dec-1-en-4-one] | 108% | 229 nM
20 | CC(C)N1CCC2(CC1)N=C(c1ccc(-c3ccc4occc4c3)cc1)N(C[C@@H]1CCN(C(=O)C3CC3)C1)C2=O [compound 167, 2-[4-(1-Benzofuran-5-yl)phenyl]-3-{[(3R)-1-(cyclopropylcarbonyl)pyrrolidin-3-yl]methyl}-8-(1-methylethyl)-1,3,8-triazaspiro[4.5]dec-1-en-4-one] | 96.4% | 525 nM
21 | O=C(C1CC1)N1CC[C@@H](CN2C(=O)C3(CCN(CCO)CC3)N=C2c2ccc(-c3ccc4occc4c3)cc2)C1 [compound 168, 2-[4-(1-Benzofuran-5-yl)phenyl]-3-{[(3R)-1-(cyclopropylcarbonyl)pyrrolidin-3-yl]methyl}-8-(2-hydroxyethyl)-1,3,8-triazaspiro[4.5]dec-1-en-4-one] | 108% | 145 nM
22 | CC(C)N1CCC2(CC1)N=C(c1ccc(-c3ccc4c(cnn4C)c3)cc1)N(CC1CN(C(=O)C3CC3)C1)C2=O [compound 169, 3-{[1-(Cyclopropylcarbonyl)azetidin-3-yl]methyl}-8-(1-methylethyl)-2-[4-(1-methyl-1H-indazol-5-yl)phenyl]-1,3,8-triazaspiro[4.5]dec-1-en-4-one] | 45.7% | > 10000 nM
23 | Cn1ncc2cc(-c3ccc(C4=NC5(CCN(CCO)CC5)C(=O)N4CC4CN(C(=O)C5CC5)C4)cc3)ccc21 [compound 170, 3-{[1-(Cyclopropylcarbonyl)azetidin-3-yl]methyl}-8-(2-hydroxyethyl)-2-[4-(1-methyl-1H-indazol-5-yl)phenyl]-1,3,8-triazaspiro[4.5]dec-1-en-4-one] | 55.6% | 7940 nM
24 | CC(=O)N1CCC2(CC1)N=C(c1ccc(-c3ccc4sc(C)c(C)c4c3)cc1)N(C[C@@H]1CCN(C(=O)C3CC3)C1)C2=O [compound 181, 8-Acetyl-3-{[(3R)-1-(cyclopropylcarbonyl)pyrrolidin-3-yl]methyl}-2-[4-(2,3-dimethyl-1-benzothiophen-5-yl)phenyl]-1,3,8-triazaspiro[4.5]dec-1-en-4-one] | 109% | 123 nM
